Earlier results, collected in patent publication US20160069160A1, “TREATMENT OF MICROBIAL-INFLUENCED CORROSION” (TRICAN WELL SERVICE LTD., priority 2014, published 2016).

Tested on: microbes

O=CCCCC=O [glutaraldehyde]
efficacy at low pH (below pH 5): significantly reduced | concentration required to be effective at pH 7 relative to pH 9 (pH 7 vs pH 9): 4 to 6 times higher

tetrakis(hydroxymethyl)phosphonium sulfate [THPS]
effect of pH on microbial control: unaffected by pH
